pIC50: −log10 of the molar value.

Holding throughout (assay): cFMs Autophosphorylation Fluorescence Polarization End Point Assay.
Common to all, as to conditions: pH 7.5; 22 °C

Experiment [1] addresses T1, Macrophage colony-stimulating factor 1 receptor [538-678,753-922] (Homo sapiens, UniProt P07333).
T1 construct: 538-678,753-922
T1 sequence (P07333 whole entry): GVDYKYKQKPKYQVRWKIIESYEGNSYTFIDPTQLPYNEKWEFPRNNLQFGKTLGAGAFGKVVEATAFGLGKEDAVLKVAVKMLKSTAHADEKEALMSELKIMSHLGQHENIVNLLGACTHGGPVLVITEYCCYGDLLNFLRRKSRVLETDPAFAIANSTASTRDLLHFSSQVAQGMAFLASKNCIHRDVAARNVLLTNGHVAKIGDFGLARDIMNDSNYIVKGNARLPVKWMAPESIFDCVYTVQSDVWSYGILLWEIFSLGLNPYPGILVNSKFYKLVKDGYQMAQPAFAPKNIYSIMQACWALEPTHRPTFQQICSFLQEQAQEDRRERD
On the procedure:
(§1) Control reactions were run in each plate. Assay buffer was substituted for the compound in positive and negative control wells. The fluorescence polarization was measured after 30 min of incubation. […] The IC50 values reported are the averages of three independent measurements.

Experiment [2] concerns the target T2, Macrophage colony-stimulating factor 1 receptor [538-678,753-922] (Homo sapiens, UniProt P07333).
T2 construct: 538-678,753-922
T2 sequence (P07333 whole entry): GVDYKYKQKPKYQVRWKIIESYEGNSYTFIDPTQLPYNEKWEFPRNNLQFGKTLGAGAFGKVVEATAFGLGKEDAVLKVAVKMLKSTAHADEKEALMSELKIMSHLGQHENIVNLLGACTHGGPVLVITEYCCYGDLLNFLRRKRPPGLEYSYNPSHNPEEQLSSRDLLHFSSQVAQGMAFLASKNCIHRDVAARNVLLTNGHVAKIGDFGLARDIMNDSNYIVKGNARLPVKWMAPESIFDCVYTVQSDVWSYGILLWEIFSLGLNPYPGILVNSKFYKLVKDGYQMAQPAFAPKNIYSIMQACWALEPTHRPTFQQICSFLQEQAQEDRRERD
On the procedure: as §1
The source holds these as a separate data set.

Experiment [3] concerns the target T3, Macrophage colony-stimulating factor 1 receptor [538-972] (UniProt P07333).
T3 construct: 538-972
T3 sequence (P07333 whole entry): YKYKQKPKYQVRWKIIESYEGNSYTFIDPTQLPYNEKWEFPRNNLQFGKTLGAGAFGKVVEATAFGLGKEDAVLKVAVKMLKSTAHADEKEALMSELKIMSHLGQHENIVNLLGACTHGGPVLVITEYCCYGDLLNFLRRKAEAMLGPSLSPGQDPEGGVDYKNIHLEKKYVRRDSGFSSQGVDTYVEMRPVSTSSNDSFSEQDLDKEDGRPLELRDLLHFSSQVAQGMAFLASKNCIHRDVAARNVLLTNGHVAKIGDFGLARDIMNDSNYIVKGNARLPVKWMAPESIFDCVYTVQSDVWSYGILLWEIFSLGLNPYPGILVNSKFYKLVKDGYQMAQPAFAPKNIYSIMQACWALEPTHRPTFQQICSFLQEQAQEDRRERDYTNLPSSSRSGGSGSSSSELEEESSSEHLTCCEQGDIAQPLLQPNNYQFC
How it is done:
as §1

In the case of `N#C/C(=C\c1ccc(O)c(O)c1)C(N)=S` [alpha-Cyano-(3,4-dihydroxy)thiocinnamide], the values for the negative logarithm of the IC50 (pIC50) in experiment [1], in experiment [2] and in experiment [3] were 5.48, 5.52 and 5.54, respectively.

Consider `O=Nc1c(C2C(=O)Nc3ccccc32)[nH]c2ccccc12` (configuration not stated) [Indirubin-3 -monoxime], for which the pIC50 – broadly, the IC50 on a negative log10 scale, so that one unit is a factor of ten – in experiment [1] is 5.35; in experiment [2], 5.38; in experiment [3] it was 5.32.

On to `CN(C)CCNC(=O)N1CCN(Cc2cc(C(F)(F)F)cc(C(F)(F)F)c2)CC1` [JNJ31117164], for which the negative-log IC50 (pIC50) in experiment [1] is 5.89; in experiment [2] it was 5.92; in experiment [3], 5.92.

As to `Cc1cc2ncc(-c3ccc(O)c(O)c3)nc2cc1C` [2-(3,4-Dihydroxyphenyl)-6,7-dimethylquinoxaline], the pIC50 is 5.08 in experiment [1], 5.03 in experiment [2] and 5.00 in experiment [3].

Values taken from BindingDB's records for doi:10.1074/jbc.M608182200 (Johnson & Johnson Pharmaceutical, 2007).
